Test results from article PMC5513037, “Examining the influence of specificity ligands and ATP-competitive ligands on the overall effectiveness of bivalent kinase inhibitors” (Proteome Science, 2017).

Columns and labels:
Experiment in all cases: KAM-matrix competition in K562 lysate;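 on 0.001 uM KAM: median log10 fold change of treatment over DMSO control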;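 on 0.01 uM KAM: median log10 fold change of treatment over DMSO control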;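 on 0.1 uM KAM: median log10 fold change of treatment over DMSO control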;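 on 1 uM KAM: median log10 fold change of treatment over DMSO control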;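 on 10 uM KAM: median log10 fold change of treatment over DMSO control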
Format in all cases: binding
ADCK1 = target: T1, ADCK1 (Homo sapiens, UniProt Q86TW2);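 on 0.001 uM KAM: median log10 fold change of treatment over DMSO control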;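 on 0.01 uM KAM: median log10 fold change of treatment over DMSO control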;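 on 0.1 uM KAM: median log10 fold change of treatment over DMSO control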;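 on 1 uM KAM: median log10 fold change of treatment over DMSO control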;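 on 10 uM KAM: median log10 fold change of treatment over DMSO control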
T1 construct: endogenous in cells; host or cells: K562
T1 sequence (Q86TW2 1-530): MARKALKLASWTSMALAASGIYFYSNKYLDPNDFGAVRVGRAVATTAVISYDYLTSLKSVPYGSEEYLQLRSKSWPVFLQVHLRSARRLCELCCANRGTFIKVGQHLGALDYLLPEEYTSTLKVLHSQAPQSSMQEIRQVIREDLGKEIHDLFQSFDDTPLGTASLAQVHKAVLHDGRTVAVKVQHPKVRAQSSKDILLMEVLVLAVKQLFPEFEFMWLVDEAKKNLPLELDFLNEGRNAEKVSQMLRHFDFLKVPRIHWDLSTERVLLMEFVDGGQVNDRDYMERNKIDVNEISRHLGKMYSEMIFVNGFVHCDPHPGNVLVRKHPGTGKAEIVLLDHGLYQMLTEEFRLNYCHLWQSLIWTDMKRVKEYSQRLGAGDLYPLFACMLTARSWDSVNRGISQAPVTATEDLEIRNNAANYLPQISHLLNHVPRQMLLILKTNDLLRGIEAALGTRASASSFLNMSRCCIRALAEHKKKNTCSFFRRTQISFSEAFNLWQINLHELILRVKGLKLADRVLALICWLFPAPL
Description: (§1) Supplement 12953_2017_125_MOESM1_ESM.zip/MS_Supp Info.xlsx, sheet "KAM" | column: 10 uM KAM; 1 uM KAM; 0.1 uM KAM; 0.01 uM KAM; 0.001 uM KAM; RB50

EPHB6 = target: T2, EPHB6 (Homo sapiens, UniProt O15197)
T2 construct: endogenous in cells; host or cells: K562
T2 sequence (O15197 32-1021): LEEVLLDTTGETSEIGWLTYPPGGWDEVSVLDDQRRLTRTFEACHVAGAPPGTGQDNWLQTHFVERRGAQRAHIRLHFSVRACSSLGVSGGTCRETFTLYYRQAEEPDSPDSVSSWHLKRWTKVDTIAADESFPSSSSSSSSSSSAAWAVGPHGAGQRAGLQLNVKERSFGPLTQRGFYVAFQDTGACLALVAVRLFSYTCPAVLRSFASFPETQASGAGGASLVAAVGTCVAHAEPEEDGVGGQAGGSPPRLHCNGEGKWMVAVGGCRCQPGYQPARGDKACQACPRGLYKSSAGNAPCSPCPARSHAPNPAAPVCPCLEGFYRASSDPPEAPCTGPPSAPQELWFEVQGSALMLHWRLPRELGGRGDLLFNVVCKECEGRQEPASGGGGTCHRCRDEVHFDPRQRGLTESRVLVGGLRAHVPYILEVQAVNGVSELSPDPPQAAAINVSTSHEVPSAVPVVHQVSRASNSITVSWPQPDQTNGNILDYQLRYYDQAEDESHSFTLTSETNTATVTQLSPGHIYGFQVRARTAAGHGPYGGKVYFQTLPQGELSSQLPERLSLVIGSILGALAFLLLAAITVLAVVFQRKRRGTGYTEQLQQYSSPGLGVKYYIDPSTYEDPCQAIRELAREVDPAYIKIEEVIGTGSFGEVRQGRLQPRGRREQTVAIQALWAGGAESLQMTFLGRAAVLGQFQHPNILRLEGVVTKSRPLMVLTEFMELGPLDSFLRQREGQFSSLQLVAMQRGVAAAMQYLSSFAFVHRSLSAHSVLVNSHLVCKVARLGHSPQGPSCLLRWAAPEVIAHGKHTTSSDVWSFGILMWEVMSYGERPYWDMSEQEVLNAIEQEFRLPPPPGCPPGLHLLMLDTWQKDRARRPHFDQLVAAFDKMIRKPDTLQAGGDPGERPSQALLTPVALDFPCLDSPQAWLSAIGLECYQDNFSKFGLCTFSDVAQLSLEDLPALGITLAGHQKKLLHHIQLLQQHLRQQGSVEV
Description: as §1

MAP4K4 = target: T3, MAP4K4 (Homo sapiens, UniProt O95819);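 on 0.001 uM KAM: median log10 fold change of treatment over DMSO control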;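 on 0.01 uM KAM: median log10 fold change of treatment over DMSO control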;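 on 0.1 uM KAM: median log10 fold change of treatment over DMSO control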;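 on 1 uM KAM: median log10 fold change of treatment over DMSO control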;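 on 10 uM KAM: median log10 fold change of treatment over DMSO control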
T3 construct: endogenous in cells; host or cells: K562
Description: as §1

RPS6KB1 = target: T4, RPS6KB1 (Homo sapiens, UniProt P23443);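 on 0.001 uM KAM: median log10 fold change of treatment over DMSO control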;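 on 0.01 uM KAM: median log10 fold change of treatment over DMSO control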;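 on 0.1 uM KAM: median log10 fold change of treatment over DMSO control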;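 on 1 uM KAM: median log10 fold change of treatment over DMSO control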;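 on 10 uM KAM: median log10 fold change of treatment over DMSO control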
T4 construct: endogenous in cells; host or cells: K562
Description: as §1

SIK2 = target: T5, SIK2 (Homo sapiens, UniProt Q9H0K1)
T5 construct: endogenous in cells; host or cells: K562 cells (lysate)
Description: as §1

STK17B = target: T6, STK17B (Homo sapiens, UniProt O94768)
T6 construct: endogenous in cells; host or cells: K562 cells (lysate)
T6 sequence (O94768 1-372): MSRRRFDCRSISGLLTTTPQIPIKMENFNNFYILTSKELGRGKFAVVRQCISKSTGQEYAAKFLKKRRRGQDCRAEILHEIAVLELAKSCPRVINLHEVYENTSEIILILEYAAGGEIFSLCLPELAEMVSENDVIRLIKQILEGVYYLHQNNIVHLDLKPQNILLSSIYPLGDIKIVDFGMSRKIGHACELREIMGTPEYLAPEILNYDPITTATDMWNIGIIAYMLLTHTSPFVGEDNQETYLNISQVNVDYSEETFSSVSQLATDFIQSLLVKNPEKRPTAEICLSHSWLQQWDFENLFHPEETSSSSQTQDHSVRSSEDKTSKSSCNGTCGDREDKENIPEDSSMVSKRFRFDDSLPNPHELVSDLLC
Description: as §1

TNK2 = target: T7, TNK2 (Homo sapiens, UniProt Q07912);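 on 0.001 uM KAM: median log10 fold change of treatment over DMSO control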;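 on 0.01 uM KAM: median log10 fold change of treatment over DMSO control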;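 on 0.1 uM KAM: median log10 fold change of treatment over DMSO control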;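 on 1 uM KAM: median log10 fold change of treatment over DMSO control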;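 on 10 uM KAM: median log10 fold change of treatment over DMSO control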
T7 construct: endogenous in cells; host or cells: K562
Description: as §1

[1] = KAM 0.001-10 uM, read-out: RB50 (the source's name)
[2] = read-out: RB50 (the source's name)

T4 sequence (P23443 whole entry): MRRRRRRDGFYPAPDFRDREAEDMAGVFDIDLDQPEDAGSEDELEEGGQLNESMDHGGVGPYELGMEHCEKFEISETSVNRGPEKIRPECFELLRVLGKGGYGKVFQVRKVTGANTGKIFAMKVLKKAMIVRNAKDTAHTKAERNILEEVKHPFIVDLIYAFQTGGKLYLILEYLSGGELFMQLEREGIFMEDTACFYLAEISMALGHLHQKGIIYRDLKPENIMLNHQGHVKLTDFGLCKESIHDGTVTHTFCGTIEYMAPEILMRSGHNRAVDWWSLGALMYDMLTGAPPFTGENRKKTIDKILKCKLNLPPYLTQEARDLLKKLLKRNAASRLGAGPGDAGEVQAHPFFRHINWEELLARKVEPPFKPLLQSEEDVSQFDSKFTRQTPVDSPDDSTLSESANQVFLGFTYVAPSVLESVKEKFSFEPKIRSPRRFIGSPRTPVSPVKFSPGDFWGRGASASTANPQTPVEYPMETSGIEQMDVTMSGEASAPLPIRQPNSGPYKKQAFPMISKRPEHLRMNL
T5 sequence (Q9H0K1 whole entry): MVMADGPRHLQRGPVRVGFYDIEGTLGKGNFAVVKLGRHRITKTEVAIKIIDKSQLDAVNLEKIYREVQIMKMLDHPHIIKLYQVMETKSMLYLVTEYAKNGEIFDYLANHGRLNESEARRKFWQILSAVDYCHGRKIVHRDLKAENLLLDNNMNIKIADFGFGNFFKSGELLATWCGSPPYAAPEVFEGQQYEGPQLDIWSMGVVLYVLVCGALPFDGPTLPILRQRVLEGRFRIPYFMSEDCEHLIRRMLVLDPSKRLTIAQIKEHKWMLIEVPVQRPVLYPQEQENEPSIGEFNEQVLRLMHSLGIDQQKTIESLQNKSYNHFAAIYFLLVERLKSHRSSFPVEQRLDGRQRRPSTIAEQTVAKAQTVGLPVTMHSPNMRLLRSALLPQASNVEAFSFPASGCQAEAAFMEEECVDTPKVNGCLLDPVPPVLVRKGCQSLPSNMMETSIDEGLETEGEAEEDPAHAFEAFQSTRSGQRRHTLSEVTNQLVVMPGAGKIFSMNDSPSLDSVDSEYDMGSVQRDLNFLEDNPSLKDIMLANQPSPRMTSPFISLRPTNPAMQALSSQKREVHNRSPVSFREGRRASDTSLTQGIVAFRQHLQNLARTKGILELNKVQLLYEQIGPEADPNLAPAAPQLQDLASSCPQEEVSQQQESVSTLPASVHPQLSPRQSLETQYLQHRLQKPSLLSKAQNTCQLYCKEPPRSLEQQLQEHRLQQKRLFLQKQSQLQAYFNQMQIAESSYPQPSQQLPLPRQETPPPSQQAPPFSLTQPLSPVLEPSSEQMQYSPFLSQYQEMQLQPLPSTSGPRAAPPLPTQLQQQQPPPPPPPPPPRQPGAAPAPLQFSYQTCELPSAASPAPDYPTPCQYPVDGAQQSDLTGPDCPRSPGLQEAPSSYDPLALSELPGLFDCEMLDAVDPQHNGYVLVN
T3 sequence (O95819 whole entry): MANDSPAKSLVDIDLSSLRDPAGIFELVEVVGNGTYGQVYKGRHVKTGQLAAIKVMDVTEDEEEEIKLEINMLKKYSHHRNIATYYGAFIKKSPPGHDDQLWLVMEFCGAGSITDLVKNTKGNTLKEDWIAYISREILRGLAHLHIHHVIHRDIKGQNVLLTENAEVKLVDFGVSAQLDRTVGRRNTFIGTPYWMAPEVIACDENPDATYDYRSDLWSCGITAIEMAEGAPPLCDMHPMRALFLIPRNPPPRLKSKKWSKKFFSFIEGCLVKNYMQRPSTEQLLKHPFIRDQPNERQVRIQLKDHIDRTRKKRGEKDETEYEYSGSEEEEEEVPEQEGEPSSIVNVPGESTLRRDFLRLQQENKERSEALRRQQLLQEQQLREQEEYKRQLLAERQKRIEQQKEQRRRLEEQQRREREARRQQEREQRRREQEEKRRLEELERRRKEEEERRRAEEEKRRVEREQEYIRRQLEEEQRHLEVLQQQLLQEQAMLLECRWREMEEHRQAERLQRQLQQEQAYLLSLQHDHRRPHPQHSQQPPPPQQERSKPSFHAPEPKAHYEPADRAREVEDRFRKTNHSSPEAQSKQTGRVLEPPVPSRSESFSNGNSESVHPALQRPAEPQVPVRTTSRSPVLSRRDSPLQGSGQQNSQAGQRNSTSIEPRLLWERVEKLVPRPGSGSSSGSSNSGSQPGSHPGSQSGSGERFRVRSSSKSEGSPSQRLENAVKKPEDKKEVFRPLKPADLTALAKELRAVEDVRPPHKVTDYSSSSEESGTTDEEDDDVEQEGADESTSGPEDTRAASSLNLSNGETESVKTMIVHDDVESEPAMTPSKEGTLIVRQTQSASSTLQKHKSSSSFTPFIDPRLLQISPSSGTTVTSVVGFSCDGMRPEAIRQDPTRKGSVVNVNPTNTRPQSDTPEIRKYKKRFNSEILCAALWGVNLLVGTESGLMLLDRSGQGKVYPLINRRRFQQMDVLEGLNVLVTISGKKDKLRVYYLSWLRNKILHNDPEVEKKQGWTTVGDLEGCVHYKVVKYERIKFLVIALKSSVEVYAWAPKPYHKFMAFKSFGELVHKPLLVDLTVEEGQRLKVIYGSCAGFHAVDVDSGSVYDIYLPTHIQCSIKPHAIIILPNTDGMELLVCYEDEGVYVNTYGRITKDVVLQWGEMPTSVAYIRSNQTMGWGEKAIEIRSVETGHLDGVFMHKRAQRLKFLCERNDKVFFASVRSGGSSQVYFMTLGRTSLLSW
T7 sequence (Q07912 whole entry): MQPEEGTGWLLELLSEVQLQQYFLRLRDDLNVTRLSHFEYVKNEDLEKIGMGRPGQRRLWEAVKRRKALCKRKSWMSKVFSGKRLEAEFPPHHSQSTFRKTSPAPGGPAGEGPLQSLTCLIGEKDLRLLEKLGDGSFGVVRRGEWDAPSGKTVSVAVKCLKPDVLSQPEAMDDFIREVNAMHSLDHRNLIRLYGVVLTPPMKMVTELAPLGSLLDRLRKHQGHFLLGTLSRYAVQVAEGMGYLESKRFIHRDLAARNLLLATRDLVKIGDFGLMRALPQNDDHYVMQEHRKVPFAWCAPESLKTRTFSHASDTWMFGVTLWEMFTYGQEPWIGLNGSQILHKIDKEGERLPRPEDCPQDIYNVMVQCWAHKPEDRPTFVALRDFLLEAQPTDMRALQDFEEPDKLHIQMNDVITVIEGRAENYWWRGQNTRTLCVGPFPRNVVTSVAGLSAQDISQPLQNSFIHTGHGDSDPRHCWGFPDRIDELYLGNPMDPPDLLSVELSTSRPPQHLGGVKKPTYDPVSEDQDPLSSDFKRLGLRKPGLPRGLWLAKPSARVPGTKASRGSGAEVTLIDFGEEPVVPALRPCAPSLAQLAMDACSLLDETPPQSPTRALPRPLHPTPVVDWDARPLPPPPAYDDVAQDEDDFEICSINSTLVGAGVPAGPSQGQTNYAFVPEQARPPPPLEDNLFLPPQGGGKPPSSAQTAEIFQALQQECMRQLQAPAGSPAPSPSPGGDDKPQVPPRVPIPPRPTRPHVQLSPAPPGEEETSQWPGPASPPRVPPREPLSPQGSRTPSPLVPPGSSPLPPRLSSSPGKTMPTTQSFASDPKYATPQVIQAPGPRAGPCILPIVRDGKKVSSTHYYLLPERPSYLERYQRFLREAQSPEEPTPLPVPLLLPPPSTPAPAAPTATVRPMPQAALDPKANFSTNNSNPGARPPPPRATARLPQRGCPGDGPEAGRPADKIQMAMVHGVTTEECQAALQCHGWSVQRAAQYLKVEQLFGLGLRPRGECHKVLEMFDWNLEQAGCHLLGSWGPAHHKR

**Q.** `N#CCc1ccc(Nc2nc(NCCCN)cc(Nc3cc(C4CC4)[nH]n3)n2)cc1` [KAM] was tested. Which IC50 (ADCK1; [1]) did it give?
**A.** > 10 µM

**Q.** What about the “0.001 uM KAM” value (ADCK1; relative to 0 uM KAM = 0) of the same compound?
**A.** -0.001358

**Q.** What about the “0.01 uM KAM” value (ADCK1; relative to 0 uM KAM = 0) of the same compound?
**A.** -0.0336

**Q.** And the “0.1 uM KAM” value (ADCK1; relative to 0 uM KAM = 0)?
**A.** -0.06203

**Q.** And the “1 uM KAM” value (ADCK1; relative to 0 uM KAM = 0)?
**A.** -0.1949

**Q.** What about the “10 uM KAM” value (ADCK1; relative to 0 uM KAM = 0) of the same compound?
**A.** -0.2595

**Q.** And the “median Log10 fold change” value (EPHB6; 0.001 uM KAM)?
**A.** -0.01655

**Q.** What about the “median Log10 fold change” value (EPHB6; 0.01 uM KAM) of the same compound?
**A.** -0.02112

**Q.** And the “median Log10 fold change” value (EPHB6; 0.1 uM KAM)?
**A.** -0.1129

**Q.** And the “median Log10 fold change” value (EPHB6; 1 uM KAM)?
**A.** -0.2258

**Q.** And the “median Log10 fold change” value (EPHB6; 10 uM KAM)?
**A.** -0.3985

**Q.** And the IC50 (EPHB6; [2])?
**A.** 2.51 µM

**Q.** And the IC50 (MAP4K4; [1])?
**A.** > 10 µM

**Q.** And the “0.001 uM KAM” value (MAP4K4; relative to 0 uM KAM = 0)?
**A.** -0.04181

**Q.** And the “0.01 uM KAM” value (MAP4K4; relative to 0 uM KAM = 0)?
**A.** -0.007384

**Q.** What about the “0.1 uM KAM” value (MAP4K4; relative to 0 uM KAM = 0) of the same compound?
**A.** -0.1078

**Q.** What about the “1 uM KAM” value (MAP4K4; relative to 0 uM KAM = 0) of the same compound?
**A.** -0.1201

**Q.** And the “10 uM KAM” value (MAP4K4; relative to 0 uM KAM = 0)?
**A.** -0.1434

**Q.** What about the IC50 (RPS6KB1; [1]) of the same compound?
**A.** > 10 µM

**Q.** What about the “0.001 uM KAM” value (RPS6KB1; relative to 0 uM KAM = 0) of the same compound?
**A.** 0.05992

**Q.** And the “0.01 uM KAM” value (RPS6KB1; relative to 0 uM KAM = 0)?
**A.** 0.07406

**Q.** And the “0.1 uM KAM” value (RPS6KB1; relative to 0 uM KAM = 0)?
**A.** 0.2008

**Q.** And the “1 uM KAM” value (RPS6KB1; relative to 0 uM KAM = 0)?
**A.** 0.1222

**Q.** And the “10 uM KAM” value (RPS6KB1; relative to 0 uM KAM = 0)?
**A.** 0.1654

**Q.** What about the “median Log10 fold change” value (SIK2; 0.001 uM KAM) of the same compound?
**A.** -0.01021

**Q.** What about the “median Log10 fold change” value (SIK2; 0.01 uM KAM) of the same compound?
**A.** -0.008818

**Q.** What about the “median Log10 fold change” value (SIK2; 0.1 uM KAM) of the same compound?
**A.** -0.08618

**Q.** What about the “median Log10 fold change” value (SIK2; 1 uM KAM) of the same compound?
**A.** -0.3925

**Q.** And the “median Log10 fold change” value (SIK2; 10 uM KAM)?
**A.** -0.5017

**Q.** What about the IC50 (SIK2; [2]) of the same compound?
**A.** 0.798 µM

**Q.** What about the “median Log10 fold change” value (STK17B; 0.001 uM KAM) of the same compound?
**A.** 0.02659

**Q.** And the “median Log10 fold change” value (STK17B; 0.01 uM KAM)?
**A.** 0.008023

**Q.** What about the “median Log10 fold change” value (STK17B; 0.1 uM KAM) of the same compound?
**A.** -0.1097

**Q.** And the “median Log10 fold change” value (STK17B; 1 uM KAM)?
**A.** -0.3588

**Q.** What about the “median Log10 fold change” value (STK17B; 10 uM KAM) of the same compound?
**A.** -0.5971

**Q.** And the IC50 (STK17B; [2])?
**A.** 0.799 µM

**Q.** And the IC50 (TNK2; [1])?
**A.** > 10 µM

**Q.** And the “0.001 uM KAM” value (TNK2; relative to 0 uM KAM = 0)?
**A.** 0.001973

**Q.** What about the “0.01 uM KAM” value (TNK2; relative to 0 uM KAM = 0) of the same compound?
**A.** -0.007052

**Q.** What about the “0.1 uM KAM” value (TNK2; relative to 0 uM KAM = 0) of the same compound?
**A.** -0.06006

**Q.** What about the “1 uM KAM” value (TNK2; relative to 0 uM KAM = 0) of the same compound?
**A.** -0.2026

**Q.** What about the “10 uM KAM” value (TNK2; relative to 0 uM KAM = 0) of the same compound?
**A.** -0.2086
